Laboratory results reported in paper PMC4474874, “Effect of JAK Inhibitors on Release of CXCL9, CXCL10 and CXCL11 from Human Airway Epithelial Cells” (PLoS ONE, 2015).
Like-named read-outs stand apart in the source and are kept apart here.

Key:
JAK2 [1] = test system: JAK2; set-up: method as in PMID 18094329; details: cellular assay; cited from earlier work
JAK3 = test system: JAK3; set-up: method as in PMID 18094329; details: read-out: IC50 against JAK3; cited from earlier work
PAK4 = test system: PAK4; set-up: method as in PMID 18094329; details: inactive or IC50 >30μM; read-out: IC50 against PAK4; cited from earlier work
[2] = test system: human primary airway epithelial cells; assay: IL-6 release from IFNγ + TNFα-stimulated human primary airway epithelial cells; type: cell-based; details: for IC50: IFNγ + TNFα, n = 7
Description: In order to determine whether any of the inhibitory effects of the JAK inhibitors could be attributed to cell death, MTT assays were performed at the end of every experiment. […] In order to address this issue, the levels of IL-6 released from cells stimulated with IFNγ + TNFα were measured.

JAK/JAK3 = test system: JAK/JAK3; set-up: method as in PMID 18094329; details: cellular assay; cited from earlier work
STAT-1 = STAT-1 phosphorylation in human primary airway epithelial cells (western blot); type: cell-based; details: 1μM inhibitor 1h, IFNγ and IFNγ + TNFα 10 min
Description: Enhanced chemiluminescence (ECL) reagent and Hybond-ECL nitrocellulose were obtained from GE Healthcare (Little Chalfont, UK). Bis-Tris SDS-PAGE (4–12%) gels and buffers were purchased from Invitrogen Ltd (Paisley, Scotland, UK). Antibodies against phosphorylated and total STAT-1 were purchased from New England Biolabs (Hitchin, UK). Epithelial cells were treated as indicated in six-well plates and lysed in 10 mM Tris-HCl buffer (pH 7.5) containing 150 mM NaCl, 2 mM EDTA, 1 mM sodium orthovanadate, 1% (v/v) Triton X-100, 1 mM phenylmethylsulfonyl fluoride, 10 μg/ml leupeptin, and 10 μg/ml aprotinin) for 30 min on ice. The lysates were then centrifuged at 12,000g for 15 min and protein concentration determined using the BCA protein assay (BioRad, Hemel Hempstead, UK). The proteins within the lysates (20 μg) were resolved with 4–12% Bis-Tris gels and transferred onto nitrocellulose membranes. The membranes were then blocked with 5% (w/v) non-fat milk in TBS containing 0.1% (v/v) Tween 20 for 1 h at room temperature and then incubated with antibodies specific for pSTAT-1 overnight at 4°C. The primary antibody was detected with peroxidase-conjugated secondary antibodies and labelled proteins were detected by ECL.
Cells were harvested and western blots performed for phosphorylated STAT-1 and total STAT-1 and quantified by densitometry. […]

cdk2 = test system: cdk2; set-up: method as in PMID 18094329; details: inactive or IC50 >30μM; read-out: IC50 against cdk2; cited from earlier work
FGFR1 = test system: FGFR1; set-up: method as in PMID 18094329; details: inactive or IC50 >30μM; read-out: IC50 against FGFR1; cited from earlier work
MASK = test system: MASK; set-up: method as in PMID 18094329; details: inactive or IC50 >30μM; read-out: IC50 against MASK; cited from earlier work
IKKi = test system: IKKi; set-up: method as in PMID 18094329; details: inactive or IC50 >30μM; read-out: IC50 against IKKi; cited from earlier work
MET = test system: MET; set-up: method as in PMID 18094329; details: inactive or IC50 >30μM; read-out: IC50 against MET; cited from earlier work
TrkA = test system: TrkA; set-up: method as in PMID 18094329; details: inactive or IC50 >30μM; read-out: IC50 against TrkA; cited from earlier work
cdk6 = test system: cdk6; set-up: method as in PMID 18094329; details: inactive or IC50 >30μM; read-out: IC50 against cdk6; cited from earlier work
PKCb = test system: PKCb; set-up: method as in PMID 18094329; details: inactive or IC50 >30μM; read-out: IC50 against PKCb; cited from earlier work
[3] = test system: ~30 other kinase pathways; set-up: method as in PMID 18094329; details: including AKT, GSK3β, IKKβ, IKKi, MAPK1, MAPKAP-K2, MASK, MET, and ROCK1; cited from earlier work
MAPK1 = test system: MAPK1; set-up: method as in PMID 18094329; details: inactive or IC50 >30μM; read-out: IC50 against MAPK1; cited from earlier work
ROCK1 = test system: ROCK1; set-up: method as in PMID 18094329; details: inactive or IC50 >30μM; read-out: IC50 against ROCK1; cited from earlier work
[4] = test system: human T lymphocytes (JAK1/3); set-up: method as in Coe et al., 25; details: ref Coe et al., 25; read-out: IC50 IL-2-induced IFNγ release by human T lymphocytes (JAK1/3); cited from earlier work
TYK2 = test system: TYK2; set-up: method as in Coe et al., 25; details: ref Coe et al., 25, cited from earlier work
[5] = test system: human T lymphocytes (JAK1/3); set-up: method as in Coe et al., 25; details: ref Coe et al., 25; read-out: IC50 IL-2-induced P-STAT5 human T lymphocytes (JAK1/3); cited from earlier work
JAK2 [6] = test system: JAK2; set-up: method as in Coe et al., 25; details: ref Coe et al., 25, cited from earlier work
MLK1 = test system: MLK1; set-up: method as in Coe et al., 25; details: ATP at the Km; ref Coe et al., 25; cited from earlier work
MST4 = test system: MST4; set-up: method as in Coe et al., 25; details: ATP at the Km; ref Coe et al., 25; cited from earlier work

Structure (SMILES): C[C@@H]1CCN(C(=O)N2CCCC2)C[C@@H]1N(C)c1ncnc2[nH]ccc12 [PF956980]
- IC50 (JAK2 [1]): 0.188 µM
- IC50 (JAK3): ~0.004 µM
- IC50 (PAK4): > 30 µM
- IC50 [2]: 11.4 ± 9 µM
- IC50 (JAK/JAK3): 0.022 µM
- effect on phosphorylation of STAT-1 (STAT-1): suppressed
- IC50 (cdk2): > 30 µM
- IC50 (FGFR1): > 30 µM
- IC50 (MASK): > 30 µM
- IC50 (IKKi): > 30 µM
- IC50 (MET): > 30 µM
- IC50 (TrkA): > 30 µM
- IC50 (cdk6): > 30 µM
- IC50 (PKCb): > 30 µM
- effect on ~30 other kinase pathways [3]: no effect
- IC50 (MAPK1): > 30 µM
- IC50 (ROCK1): > 30 µM

Structure (SMILES): CCc1cc(O)ccc1-c1ccc2c(-c3nc4ccccc4[nH]3)n[nH]c2c1 [PF1367550, 4-(3-(1H-benzo[d]imidazol-2-yl)-1H-indazol-6-yl)-3-ethylphenol]
- IC50 [4]: 0.014 µM
- IC50 for IL-6 release, fold greater than for inhibition of CXCR3 chemokine release [2]: ~ 50 fold
- IC50 ([2]; Homo sapiens, Epithelial cell): 0.8 ± 0.2 µM
- IC50 (TYK2; 1mM ATP, read-out: IC50 TYK2 1 mM): 0.0084 µM
- IC50 (TYK2; ATP at the Km, read-out: IC50 TYK2 Km): 0.0008 µM
- effect on phosphorylation of STAT-1 (STAT-1): suppressed
- IC50 [5]: 0.011 µM
- IC50 (JAK2 [6]; 1mM ATP, read-out: IC50 JAK2 1 mM): 0.0013 µM
- IC50 (JAK2 [6]; ATP at the Km, read-out: IC50 JAK2 Km): 0.001 µM
- IC50 (MLK1): 0.054 µM
- IC50 (MST4): 0.692 µM
